Calls of active or inactive are those of the source. No cut-off for these calls is given here. Residues, ends and D or L forms follow the SMILES beside them. *: point of attachment. Cbz = O=C(OCc1ccccc1)*; CH2F = FC*
What was measured:
MDA-MB-231 [1] = test: cells; conditions: Homo sapiens, MDA-MB-231, 72 h
Description: Antiproliferative activity against human MDA-MB-231 cells assessed as inhibition of cell proliferation incubated for 72 hrs by MTT assay

BT-549 [2] = test: cells; conditions: Homo sapiens, BT-549, 72 h
Description: Antiproliferative activity against human BT-549 cells assessed as inhibition of cell proliferation incubated for 72 hrs by MTT assay

MDA-MB-231 [3] = test: Induction of apoptosis in human MDA-MB-231 cells; type: functional, cell-based
MDA-MB-231 [4] = test: Induction of ferroptosis in human MDA-MB-231 cells assessed as cell death in presence of ferrostatin-1; type: functional, cell-based
BT-549 [5] = test: Induction of ferroptosis in human BT-549 cells assessed as cell death in presence of ferrostatin-1; type: functional, cell-based
[6] = Cytotoxicity against human MCF-10A cells assessed as inhibition of cell proliferation incubated for 72 hrs by MTT assay; type: toxicity, cell-based
[7] = Selectivity index, ratio of IC50 for antiproliferative activity against human MCF-10A cells assessed as inhibition of cell proliferation to IC50 for antiproliferative activity against human MDA-MB-231 cells assessed as inhibition of cell proliferation; type: toxicity, cell-based; conditions: MCF-10A cells and MDA-MB-231 cells, read-out: Ratio IC50
MDA-MB-231 [8] = test: Downregulation of NRF2 expression in human MDA-MB-231 cells at 5 uM; type: functional, cell-based
MDA-MB-231 [9] = test: Downregulation of HO-1 expression in human MDA-MB-231 cells at 5 uM; type: functional, cell-based
MDA-MB-231 [10] = test: Induction of apoptosis in human MDA-MB-231 cells assessed as viable cells at 5 uM incubated for 48 hrs by Annexin V/PI staining based flow cytometry analysis (reference value: 97.85%); type: functional; conditions: read-out: Activity
MDA-MB-231 [11] = test: Induction of apoptosis in human MDA-MB-231 cells assessed as early apoptotic cells at 5 uM incubated for 48 hrs by Annexin V/PI staining based flow cytometry analysis (reference value: 0.80%); type: functional
MDA-MB-231 [12] = test: Induction of apoptosis in human MDA-MB-231 cells assessed as late apoptotic cells at 5 uM incubated for 48 hrs by Annexin V/PI staining based flow cytometry analysis (reference value: 0.14%); type: functional
MDA-MB-231 [13] = test: Induction of apoptosis in human MDA-MB-231 cells assessed as necrotic cells at 5 uM incubated for 48 hrs by Annexin V/PI staining based flow cytometry analysis (reference value: 0.03%); type: functional
MDA-MB-231 [14] = test: Induction of cell cycle arrest in human MDA-MB-231 cells assessed as accumulation of cells at G0/G1 phase at 5 uM incubated for 48 hrs by propidium iodide staining flow cytometric analysis (reference value: 64.56 %); type: functional
MDA-MB-231 [15] = test: Induction of cell cycle arrest in human MDA-MB-231 cells assessed as accumulation of cells at G2/M phase at 5 uM incubated for 48 hrs by propidium iodide staining flow cytometric analysis (reference value: 8.69%); type: functional
MDA-MB-231 [16] = test: Induction of cell cycle arrest in human MDA-MB-231 cells assessed as accumulation of cells at S phase at 5 uM incubated for 48 hrs by propidium iodide staining flow cytometric analysis (reference value: 26.75%); type: functional
MDA-MB-231 [17] = test: Induction of ferroptosis in human MDA-MB-231 cells assessed as cell death in presence of Z-VAD-FMK; type: functional, cell-based
BT-549 [18] = test: Induction of ferroptosis in human BT-549 cells assessed as cell death in presence of Z-VAD-FMK; type: functional, cell-based
[19] = target: T1, Phospholipid hydroperoxide glutathione peroxidase GPX4 (Homo sapiens) (UniProt P36969); test: Inhibition of GPX4 (unknown origin) upto 3 uM incubated for 60 mins in presence of NADPH by absorbance based analysis
T1 sequence (whole entry): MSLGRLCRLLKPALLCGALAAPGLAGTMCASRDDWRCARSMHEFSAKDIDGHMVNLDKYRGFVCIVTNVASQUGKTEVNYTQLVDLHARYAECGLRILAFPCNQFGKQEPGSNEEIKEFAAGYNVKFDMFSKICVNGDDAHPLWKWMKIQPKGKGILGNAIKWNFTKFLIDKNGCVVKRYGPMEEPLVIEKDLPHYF

MDA-MB-231 [20] = test: Antiproliferative activity against human MDA-MB-231 cells assessed as reduction in cell proliferation incubated for 72 hrs by MTT assay; type: functional, cell-based

Row | Structure (SMILES) | IC50 (MDA-MB-231 [1]) | IC50 (BT-549 [2]) | also measured
1 | Cc1sc2c(c1C)C(c1ccc(Cl)cc1)=N[C@@H](CC(=O)NCCCN1CCN(C(=O)CCl)CC1)c1nnc(C)n1-2 | 2.26 µM | 2.46 µM | –
2 | CC(C)[C@H](NC(=O)OCc1ccccc1)C(=O)N[C@@H](C)C(=O)N[C@@H](CC(=O)O)C(=O)CF (Cbz-Val-Ala-Asp-CH2F) | – | – | Activity (MDA-MB-231 [3]): inactive; Activity (MDA-MB-231 [4]): Active; Activity (BT-549 [5]): Active
3 | Cc1sc2c(c1C)C(c1ccc(Cl)cc1)=N[C@@H](CC(=O)Nc1ccc(N3CCN(C(=O)CCl)CC3)cc1)c1nnc(C)n1-2 | 5.31 µM | 7.53 µM | –
4 | Cc1sc2c(c1C)C(c1ccc(Cl)cc1)=N[C@@H](CC(=O)NCCCNC(=O)CCl)c1nnc(C)n1-2 | 4.57 µM | 2.27 µM | –
5 | Cc1sc2c(c1C)C(c1ccc(Cl)cc1)=N[C@@H](CC(=O)NCCOCCOCCNC(=O)CCl)c1nnc(C)n1-2 | 3.03 µM | 1.72 µM | –
6 | Cc1sc2c(c1C)C(c1ccc(Cl)cc1)=N[C@@H](CC(=O)OC(C)(C)C)c1nnc(C)n1-2 | 25.9 µM | 20.1 µM | IC50 at 72 h [6]: 46.4 µM; selectivity ratio [7]: 1.79; Activity (MDA-MB-231 [8]): Active; Activity (MDA-MB-231 [9]): Active; viability at 5 µM (MDA-MB-231 [10]): 66.4%; Activity (MDA-MB-231 [11]): 16.44%; Activity (MDA-MB-231 [12]): 16.28%; Activity (MDA-MB-231 [13]): 0.66%; Activity (MDA-MB-231 [14]): 50.48%; Activity (MDA-MB-231 [15]): 18.29%; Activity (MDA-MB-231 [16]): 31.23%
7 | Cc1sc2c(c1C)C(c1ccc(Cl)cc1)=N[C@@H](CC(=O)NCc1ccc(CNC(=O)CCl)cc1)c1nnc(C)n1-2 | 1.37 µM | 0.95 µM | –
8 | Cc1sc2c(c1C)C(c1ccc(Cl)cc1)=N[C@@H](CC(=O)NCCN1CCN(C(=O)CCl)CC1)c1nnc(C)n1-2 | 5.94 µM | 6.99 µM | –
9 | Cc1sc2c(c1C)C(c1ccc(Cl)cc1)=N[C@@H](CC(=O)NCC1CCN(C(=O)CCl)CC1)c1nnc(C)n1-2 | 1 µM | 0.72 µM | IC50 at 72 h [6]: 1.47 µM; selectivity ratio [7]: 1.47
10 | Cc1sc2c(c1C)C(c1ccc(Cl)cc1)=N[C@@H](CC(=O)NCCCCCCNC(=O)CCl)c1nnc(C)n1-2 | 5.25 µM | 5.39 µM | –
11 | CCOC(=O)c1ccc(NC2CCCCC2)c(N)c1 | – | – | Activity (MDA-MB-231 [17]): Active; Activity (BT-549 [18]): Active
12 | Cc1sc2c(c1C)C(c1ccc(Cl)cc1)=N[C@@H](CC(=O)Nc1ccc(CNC(=O)CCl)cc1)c1nnc(C)n1-2 | 1.46 µM | 1.07 µM | –
13 | Cc1sc2c(c1C)C(c1ccc(Cl)cc1)=N[C@@H](CC(=O)NCCCCNC(=O)CCl)c1nnc(C)n1-2 | 4.64 µM | 5.28 µM | –
14 | Cc1sc2c(c1C)C(c1ccc(Cl)cc1)=N[C@@H](CC(=O)Nc1ccc(NC(=O)CCl)cc1)c1nnc(C)n1-2 | 1.4 µM | 0.97 µM | –
15 | Cc1sc2c(c1C)C(c1ccc(Cl)cc1)=N[C@@H](CC(=O)Nc1ccc(CCNC(=O)CCl)cc1)c1nnc(C)n1-2 | 13.7 µM | 17.1 µM | –
16 | Cc1sc2c(c1C)C(c1ccc(Cl)cc1)=N[C@@H](CC(=O)NCCc1ccc(NC(=O)CCl)cc1)c1nnc(C)n1-2 | 0.69 µM | 0.85 µM | IC50 at 72 h [6]: 1.54 µM; selectivity ratio [7]: 2.26
17 | Cc1sc2c(c1C)C(c1ccc(Cl)cc1)=N[C@@H](CC(=O)NCCOCCNC(=O)CCl)c1nnc(C)n1-2 | 3.88 µM | 3.4 µM | –
18 | Cc1sc2c(c1C)C(c1ccc(Cl)cc1)=N[C@@H](CC(=O)NCc1ccc(NC(=O)CCl)cc1)c1nnc(C)n1-2 | 1.5 µM | 1 µM | –
19 | Cc1sc2c(c1C)C(c1ccc(Cl)cc1)=N[C@@H](CC(=O)NCCC1CCN(C(=O)CCl)CC1)c1nnc(C)n1-2 | 3.49 µM | 3.19 µM | –
20 | CC(=O)N1CCC(NC(=O)C[C@@H]2N=C(c3ccc(Cl)cc3)c3c(sc(C)c3C)-n3c(C)nnc32)CC1 | – | – | inhibition [19]: inactive; Activity (MDA-MB-231 [20]): Active
21 | Cc1sc2c(c1C)C(c1ccc(Cl)cc1)=N[C@@H](CC(=O)NCCCCCNC(=O)CCl)c1nnc(C)n1-2 | 5.57 µM | 2.62 µM | –
22 | Cc1sc2c(c1C)C(c1ccc(Cl)cc1)=N[C@@H](CC(=O)NCCNC(=O)CCl)c1nnc(C)n1-2 | 3.15 µM | 2.4 µM | –
23 | Cc1sc2c(c1C)C(c1ccc(Cl)cc1)=N[C@@H](CC(=O)N1CCN(C(=O)CCl)CC1)c1nnc(C)n1-2 | 0.74 µM | 0.72 µM | IC50 at 72 h [6]: 1.15 µM; selectivity ratio [7]: 1.55
